Experimental data as given in patent US5358947A, “Angiotensin II receptor blocking 2,3-substituted pyrazolo[1,5-a]-1,3,5-triazin-4(3H)-ones” (American Cyanamid Company, priority 1993, dated 1994).
Values joined by “and” are separate entries in the source; they are usually repeats but may differ in a detail not shown here. Equal values may be shown once.

System: ANGIOTENSIN II (AII) VASOPRESSOR RESPONSE
Experiment: AII Challenge: angiotensin II (AII) vasopressor response in conscious rats
Format: in vivo
Parameters: Response After AII / Change / Average Change: unit not given here
Conditions: for Control Before AII / Change / Response After AII: individual rat; for Control Before AII: in mmHg (unit assumed); for % Inhibition / Average Change: n = 2
Outline: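 Conscious male Okamoto-Aoki SHR (16-20 weeks, ~330 g), aorta/vena cava cannulated, challenged with AII 0.05 and 0.1 ug/kg i.v. before and at 30-300 min after compound dosed i.v., i.p. or orally. Systolic pressure rise expressed relative to each rat's predose response (100%).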

[1] = 3 mg/kg i.v., AII 0.05 mcg/kg, 30 min post dose
[2] = 3 mg/kg i.v., AII 0.05 mcg/kg, 30 min post dose, listed as Ex. 17
[3] = 3 mg/kg i.v., AII 0.1 mcg/kg, 30 min post dose
[4] = 3 mg/kg i.v., AII 0.1 mcg/kg, 30 min post dose, listed as Ex. 17
[5] = 10 mg/kg i.v., AII 0.05 mcg/kg, 60 min post dose, listed as Ex. 17
[6] = 10 mg/kg i.v., AII 0.05 mcg/kg, 90 min post dose, listed as Ex. 17
[7] = 10 mg/kg i.v., AII 0.05 mcg/kg, 120 min post dose, listed as Ex. 17
[8] = 10 mg/kg i.v., AII 0.05 mcg/kg, 180 min post dose, listed as Ex. 17
[9] = 10 mg/kg i.v., AII 0.05 mcg/kg, 240 min post dose, listed as Ex. 17
[10] = 10 mg/kg i.v., AII 0.05 mcg/kg, 300 min post dose, listed as Ex. 17
[11] = 10 mg/kg i.v., AII 0.1 mcg/kg, 60 min post dose, listed as Ex. 17
[12] = 10 mg/kg i.v., AII 0.1 mcg/kg, 90 min post dose, listed as Ex. 17
[13] = 10 mg/kg i.v., AII 0.1 mcg/kg, 120 min post dose, listed as Ex. 17
[14] = 10 mg/kg i.v., AII 0.1 mcg/kg, 180 min post dose, listed as Ex. 17
[15] = 10 mg/kg i.v., AII 0.1 mcg/kg, 240 min post dose, listed as Ex. 17
[16] = 10 mg/kg i.v., AII 0.1 mcg/kg, 300 min post dose, listed as Ex. 17

`CCCCc1nc2ccnn2c(=O)n1Cc1ccc(-c2ccccc2-c2nn[nH]n2)cc1` [Example 17, 2-Butyl-3-[[2'-(1H-tetrazol-5-yl)[1,1'-biphenyl]-4-yl]methyl]pyrazolo[1,5-a]-1,3,5-triazin-4(3H) -one] was tested, and the “Control Before AII” value [1] was 252, the Change [2] was 33 and 30 and the “Response After AII” value [2] was 285 and 265. The “Control Before AII” value [2] was 235, the “% Inhibition” value [1] was 34% and the “Average Change” value [1] was 31.5. The “Control Before AII” value [3] was 255, the Change [4] was 25 and 35 and the “Response After AII” value [4] was 280 and 260. The “Control Before AII” value [4] was 225, the “% Inhibition” value [3] was 37% and the “Average Change” value [3] was 30. The Change [5] was 5 and 10, the “Response After AII” value [5] was 255 and 245 and the “Control Before AII” value [5] was 250 and 235. The “% Inhibition” value [5] was 84%, the “Average Change” value [5] was 7.5 and the Change [6] was 25. The “Response After AII” value [6] was 275 and 255, the “Control Before AII” value [6] was 250 and 230 and the “% Inhibition” value [6] was 47%. The “Average Change” value [6] was 25, the Change [7] was 25 and 30 and the “Response After AII” value [7] was 270 and 255. The “Control Before AII” value [7] was 245 and 225, the “% Inhibition” value [7] was 42% and the “Average Change” value [7] was 27.5. The Change [8] was 20 and 30, the “Response After AII” value [8] was 260 and 240 and the “Control Before AII” value [8] was 240 and 210. The “% Inhibition” value [8] was 47%, the “Average Change” value [8] was 25 and the Change [9] was 25 and 15. For the same molecule, the “Response After AII” value [9] was 270 and 250, the “Control Before AII” value [9] was 245 and 235 and the “% Inhibition” value [9] was 58%. For the same molecule, the “Average Change” value [9] was 20, the Change [10] was 40 and 30 and the “Response After AII” value [10] was 290 and 245. The “Control Before AII” value [10] was 250 and 215, the “% Inhibition” value [10] was 26% and the “Average Change” value [10] was 35. The “Control Before AII” value (10 mg/kg i.v., AII 0.1 mcg/kg, 60 min post dose) was 255, the Change [11] was 5 and 10 and the “Response After AII” value [11] was 260 and 235. The “Control Before AII” value [11] was 225, the “% Inhibition” value [11] was 84% and the “Average Change” value [11] was 7.5. For the same molecule, the Change [12] was 15 and 35, the “Response After AII” value [12] was 265 and 260 and the “Control Before AII” value [12] was 250 and 225. For the same molecule, the “% Inhibition” value [12] was 47%, the “Average Change” value [12] was 25 and the Change [13] was 25 and 30. The “Response After AII” value [13] was 275 and 260, the “Control Before AII” value [13] was 250 and 230 and the “% Inhibition” value [13] was 42%. The “Average Change” value [13] was 27.5, the “Control Before AII” value (10 mg/kg i.v., AII 0.1 mcg/kg, 180 min post dose) was 240 and the Change [14] was 30 and 40. For the same molecule, the “Response After AII” value [14] was 270 and 265, the “Control Before AII” value [14] was 225 and the “% Inhibition” value [14] was 26%. The “Average Change” value [14] was 35, the Change [15] was 35 and 30 and the “Response After AII” value [15] was 290 and 270. For the same molecule, the “Control Before AII” value [15] was 255 and 240, the “% Inhibition” value [15] was 32% and the “Average Change” value [15] was 32.5. For the same molecule, the Change [16] was 35 and 25, the “Response After AII” value [16] was 285 and 260 and the “Control Before AII” value [16] was 250 and 235. For the same molecule, the “% Inhibition” value [16] was 37% and the “Average Change” value [16] was 30.
